These results are taken from patent publication US20120251492A1, “TRITERPENE DERIVATIVE AND AGENT FOR PREVENTING OR TREATING CHRONIC HEPATITIS C” (MEIJI SEIKA PHARMA CO., LTD., priority 2009, published 2012).

In data set [1] the test system is HCV (Con1 Strain) replicon. Put plainly: microbe, parasite or virus in culture. The data set is classed as cell-based, hepatitis C virus (HCV) Con1 strain, in Huh7 cells. Particulars: read-out: IC50 Value (50% growth inhibitory concentration). The source says: The compounds represented by the formula (I) were subjected to an HCV replicon assay and a cytotoxicity test.
In order to quantify the degree of HCV virus proliferation, a material was constructed by introducing a luciferase gene as a reporter gene into the genomic gene sequence of HCV Cont strain. The luciferase gene was introduced in the form of fusion with a neomycin-resistant gene, immediately after the IRES (Internal Ribosome Entry Site) of the HCV gene according to the method of Krieger et al., (J. Virol. 75: 4614 (2001)). The constructed RNA was introduced into Huh7 cells by electroporation, and isolated as G418 resistant clone.
The HCV replicon cells comprising the luciferase gene and the neomycin resistance gene were suspended in a culture liquid [D-MEM (SIGMA, D6046) containing 10% of fetal bovine serum (EQUITECH-BIO, INC.)], and seeded onto 96-well plates at 5000 to 8100 cells/well. Test compounds were added at various concentrations, and the cells were cultured under 5% CO2 at 37° C. for 3 days. For adding the test compounds, solutions of the test compounds dissolved in dimethyl sulfoxide (DMSO) were used, and diluted with the culture liquid to appropriate concentrations before use. The experiment was conducted with the final concentrations of DMSO used for dissolving the test compounds being 0.4% during the culturing of the replicon cells. To wells to which no test compound was added, DMSO was added with a final concentration of 0.4%.
Assay plates were prepared for two systems; one of the assays was conducted on a white plate, and the other was conducted on a clear plate. After the culturing for treatments with the test compounds was completed, the white plate was subjected to chemiluminescence measurement by using a Steady-Glo Luciferase Assay System (Promega, E2520) in order to detect effects on HCV replicon proliferation. A EnVision multilabel counter (PerkinElmer 2102) was used for the chemiluminescence measurement. While the value obtained when no test compound was added was taken as 0% inhibition, the inhibitory ratios by the treatments with the agents were calculated.
Regarding the HCV replicon assay, IC50s (50% growth inhibitory concentrations) of the agents were calculated, with the value obtained when no agent was added being taken as 0% inhibition.

Data set [2] can be described thus: Pharmacokinetics study in mice. In kind it is in vivo. Particulars: Balb/c mice, male, oral 20 mg/kg suspended in olive oil, LC-MS/MS; for AUC / Cmax / half-life: mouse, plasma; for AUC: read-out: AUC (area under the plasma drug concentration-time curve); for Cmax: read-out: Cmax (maximum plasma concentration); for half-life: read-out: t1/2 (plasma half-life) (converted). How it is done: Balb/c mice (male, 7 to 8-week old) were used (3 or more mice per group). Each test compound suspended in olive oil was orally administered at 20 mg/kg, and blood was collected from the jugular vein after 2, 6, and 24 hours, or after 2, 4, 6, 8, 24, and 48 hours. The plasma drug concentration was measured by using a liquid chromatograph/mass spectrometry/mass spectrometry (LC-MS/MS). In addition, pharmacokinetics parameters were obtained from change in the obtained plasma concentration.

[3] abbreviates: Hepatitis C virus, Huh-7, 72 h, HCV replicon cells (Huh7) with luciferase gene, cultured 3 days with test compound, 0.4% DMSO.

SMILES strings stand for the structures. Like-named read-outs stand apart in the source and are kept apart here. Where only a bound is given, the exact number is not on record here.

`CC1(C)C[C@@H](OCc2ccc(C(=O)O)cc2)[C@]2(C)CC[C@]3(C)C(=CCC4[C@@]5(C)CC[C@H](O)[C@](C)(CO)C5CC[C@]43C)[C@@H]2C1` (stereo partly drawn) [Compound 1, 22β-(4-carboxybenzyloxy)olean-12-ene-3β,24-diol]: the IC50 in data set [1] (setting [3]) was 13.5 µM.
In the case of `C#CCO[C@@H]1CC(C)(C)C[C@H]2C3=CCC4[C@@]5(C)CC[C@H](O)[C@](C)(CO)C5CC[C@@]4(C)[C@]3(C)CC[C@@]12C` (stereo partly drawn) [Compound 2, 22β-(2-propynyloxy)olean-12-ene-3β,24-diol], the IC50 in data set [1] (setting [3]) is 5.73 µM. Further, in data set [2], the AUC turned out to be 44700 ± 16300 ng·h/mL, the Cmax worked out at 2800 ± 1000 ng/mL and the half-life was 10 ± 1.2 h.
Consider `CC1(C)C[C@@H](OCc2ccc(CO)cc2)[C@]2(C)CC[C@]3(C)C(=CCC4[C@@]5(C)CC[C@H](O)[C@](C)(CO)C5CC[C@]43C)[C@@H]2C1` (stereo partly drawn) [Compound 3, 22β-(4-hydroxymethylbenzyloxy)olean-12-ene-3β,24-diol], for which the IC50 in data set [1] (Hepatitis C virus, Huh-7, 72 h) was determined as 1.56 µM.
For the compound `CC1(C)C[C@@H](OCc2ccc(C=O)cc2)[C@]2(C)CC[C@]3(C)C(=CCC4[C@@]5(C)CC[C@H](O)[C@](C)(CO)C5CC[C@]43C)[C@@H]2C1` (stereo partly drawn) [Compound 4, 22β-(4-formylbenzyloxy)olean-12-ene-3β,24-diol], in data set [1] (setting [3]), the IC50 was 3.59 µM.
Take `CC1(C)C[C@@H](OCCCO)[C@]2(C)CC[C@]3(C)C(=CCC4[C@@]5(C)CC[C@H](O)[C@](C)(CO)C5CC[C@]43C)[C@@H]2C1` (stereo partly drawn) [Compound 7, 22β-(3-hydroxypropoxy)olean-12-ene-3β,24-diol]: the IC50 in data set [1] (setting [3]) turned out to be 5.32 µM.
Still for that read-out and setting: the result for `CC1(C)C[C@@H](OCCCOc2ccc(C(=O)O)cc2)[C@]2(C)CC[C@]3(C)C(=CCC4[C@@]5(C)CC[C@H](O)[C@](C)(CO)C5CC[C@]43C)[C@@H]2C1` (stereo partly drawn) [Compound 8, 22β-(3-(4-carboxyphenyl)oxypropoxy)olean-12-ene-3β,24-diol] reads 6.99 µM; that for `CC1(C)C[C@@H](OCc2ccc(CN3CCOCC3)cc2)[C@]2(C)CC[C@]3(C)C(=CCC4[C@@]5(C)CC[C@H](O)[C@](C)(CO)C5CC[C@]43C)[C@@H]2C1` (stereo partly drawn) [Compound 9, 22β-(4-(4-morpholylmethyl)benzyloxy)olean-12-ene-3β,24-diol], 9.13 µM; that for `CN(C)Cc1ccc(CO[C@@H]2CC(C)(C)C[C@H]3C4=CCC5[C@@]6(C)CC[C@H](O)[C@](C)(CO)C6CC[C@@]5(C)[C@]4(C)CC[C@@]23C)cc1` (stereo partly drawn) [Compound 10, 22β-(4-dimethylaminomethylbenzyloxy)olean-12-ene-3β,24-diol], 3.68 µM.
Regarding `CC1(C)C[C@@H](OCc2ccc(CNc3ccccc3)cc2)[C@]2(C)CC[C@]3(C)C(=CCC4[C@@]5(C)CC[C@H](O)[C@](C)(CO)C5CC[C@]43C)[C@@H]2C1` (stereo partly drawn) [Compound 11, 22β-(4-phenylaminomethylbenzyloxy)olean-12-ene-3β,24-diol], the IC50 in data set [1] (setting [3]) stood at 13 µM.
For `CC1(C)C[C@@H](OCc2ccccc2)[C@]2(C)CC[C@]3(C)C(=CCC4[C@@]5(C)CC[C@H](O)[C@](C)(C(=O)O)C5CC[C@]43C)[C@@H]2C1` (stereo partly drawn) [Compound 12, 22β-benzyloxyolean-12-ene-3β-hydroxy-24-oic acid], the IC50 in data set [1] (setting [3]) worked out at 5.54 µM. Further, in data set [2], the AUC was 74700 ± 11000 ng·h/mL, the Cmax was found to be 4800 ± 1100 ng/mL and the half-life was 11.9 ± 2.7 h.
As for `C=CCO[C@@H]1CC(C)(C)C[C@H]2C3=CCC4[C@@]5(C)CC[C@H](O)[C@](C)(C(=O)O)C5CC[C@@]4(C)[C@]3(C)CC[C@@]12C` (stereo partly drawn) [Compound 13, 22β-allyloxyolean-12-ene-3β-hydroxy-24-oic acid], the IC50 in data set [1] (setting [3]) came out at 7.05 µM. In data set [2], the AUC was determined as 74900 ± 16300 ng·h/mL, the Cmax came to 4800 ± 1500 ng/mL and the half-life was 13 ± 5.5 h.
For `CO[C@@H]1CC(C)(C)CC2C3=CCC4[C@@]5(C)CC[C@H](O)[C@](C)(C(=O)O)C5CC[C@@]4(C)[C@]3(C)CC[C@]21C` (stereo partly drawn) [Compound 14, 3β-hydroxy-22β-methoxyolean-12-en-24-oic acid], in that order: 5.57 µM, 81100 ± 18300 ng·h/mL, 4800 ± 1100 ng/mL and 13.9 ± 1 h.
`CO[C@@H]1CC(C)(C)C[C@H]2C3=CC[C@@H]4[C@@]5(C)CC[C@H](O)[C@](C)(CO)[C@@H]5CC[C@@]4(C)[C@]3(C)CC[C@@]12C` [Compound 17, 22β-methoxyolean-12-ene-3β,24-diol, reference compound]: in data set [1] (HCV replicon cells (Huh7) with luciferase gene, cultured 3 days with test compound, 0.4% DMSO), the IC50 is more than 20 µM. Moreover, in data set [2], the “AUC (area under the plasma drug concentration-time curve)” value was 35600 ± 9700 ng·h/mL, the “Cmax (maximum plasma concentration)” value was found to be 2600 ± 700 ng/mL and the “t1/2 (plasma half-life)” value came to 7.4 ± 0.4 h.
